We go through two compounds from patent US12215123B2, “Cordycepin-based derivatized compound with anti-tumor effect” (NANJING TECH UNIVERSITY, priority 2022, dated 2025).

Holding throughout (format): in vivo, C57BL/6j nude mice
The subject of test [1] is Hep-1-6 liver cancer cells. The test can be described thus: Mouse transplanted liver cancer model. The conditions noted are these: Hep-1-6 transplanted mice, intragastric 500 ug/time/animal every other day, 14 days; blank 900 mm^3. The procedure: (§1) The feeding of the mouse model in the drug evaluation follows that: mice are fed and treated in a laminar flow cabinet, with 5 nude mice in each cage, drinking water and feedstuffs are added once every 3 days, and paddings are replaced once a week; a number of mice kept in each cage is no more than 5, the mice in separate cages are kept in groups as far as possible, and the mice should not be kept in a single cage; the animal management must conform to the relevant national standards on animal feeding management, and the behavioral needs of animals should be concerned at the same time to avoid unnecessary stress; the normal physiological and behavioral needs of animals, such as defecation, urination, constant body temperature maintenance, normal activities, posture adjustment and reproduction are met; good ventilation and dry animals are kept; the animals can access to drinking water and food at will, and supplementation, replacement and cleaning operations are easily carried out; a solid and safe environment is provided to avoid accidents of animals, such as escaping or limb trapping in a gap; the animals are avoided from being damaged by sharp edges or protrusions; and the animals are not disturbed during observation.
A mouse transplanted liver cancer model was established and a drug was evaluated. […]

The test system of another test is MC-38 colon cancer cells. The test can be described thus: Mouse transplanted colon cancer model. The settings on record: MC-38 transplanted mice, 28 days, 500 ug/time/animal intragastric (compound daily, antibody every 4 days); control 1,300 mm^3. How it is done:
as §1
A mouse transplanted colon cancer model was established and a drug was evaluated. […]

The next test deals with B16-F10 melanoma cells. The test can be described thus: Mouse transplanted melanoma model. The conditions noted are these: B16-F10 transplanted mice, intragastric 500 ug/time/animal every other day, 24 days; blank 1760 mm^3. How it is done: as §1
A mouse transplanted melanoma model was established and a drug was evaluated. 2.5×10^5 B16-F10 melanoma cells were suspended in 100 μL of PBS to be inoculated into an outer side of thigh of left lower limb of C57BL/6j nude mice. One week later, when the transplanted tumor reached about 100 mm^3, the mice were randomly divided into ten groups, with 10 mice in each group, comprising a blank control group, a cordycepin group, a compound 13 group, a compound 14 group, a compound 17 group, a compound 19 group, a compound 22 group, a compound 26 group, a compound 29 group and a compound 34 group respectively. The blank control group was intragastrically administrated with a nutritional agent such as a corn steep liquor and DMSO as a solvent control every day for 24 consecutive days, and the compound groups were intragastrically administrated with corresponding compounds (500 ug/time/animal in all cases) every other day for 24 consecutive days. […] The mice were killed after the experiment, blood and corresponding tissue samples were collected, tumor bodies were immediately photographed and weighed, and some tumor tissues were fixed in a formalin solution to be further detected. Two vertical diameters (length and width) of the transplanted tumor were measured with a caliper every two days to calculate a size of the transplanted tumor, and a tumor value was calculated according to a formula: tumor volume (mm^3)=[…].

Turning to `CC(C)OC(=O)C(C)NP(=O)(COC[C@@H]1CC(O)[C@H](n2cnc3c(NC(=O)c4ccncc4)ncnc32)O1)Oc1ccccc1` (stereo partly drawn) [Compound 24, isopropyl((((4-hydroxy-5-(6-(isonicotinamide)-9H-purin-9-yl)tetrahydrofuran-2-yl)methoxy)methyl)(phenoxy)phosphoryl)alanine ester], the tumor volume in test [1] was under 100 mm^3.

As for `Nc1ncnc2c1ncn2[C@@H]1O[C@H](CO)C[C@H]1O` [Cordycepin, 3′-deoxyadenosine], the tumor size in the test on MC-38 colon cancer cells came to 730 mm^3. The compound also registered a tumor volume in the test with B16-F10 melanoma cells of 600 mm^3.
